# In ChEMBL document CHEMBL3217532, “New analyses of MIC90 data to aid antibacterial drug discovery” (2011):
# Columns and labels:
# Type in all cases: functional
# Pseudomonas aeruginosa [1] = test: Antimicrobial activity against Pseudomonas aeruginosa 1951-00
# Pseudomonas aeruginosa [2] = test: Antimicrobial activity against Pseudomonas aeruginosa PA-4997
# Pseudomonas aeruginosa [3] = test: Antimicrobial activity against Pseudomonas aeruginosa 1612-09
# Pseudomonas aeruginosa [4] = test: Antimicrobial activity against Pseudomonas aeruginosa 1766-00
# Pseudomonas aeruginosa [5] = test: Antimicrobial activity against Pseudomonas aeruginosa 1953-00
# Pseudomonas aeruginosa [6] = test: Antimicrobial activity against Pseudomonas aeruginosa 1514-08
# Pseudomonas aeruginosa [7] = test: Antimicrobial activity against Pseudomonas aeruginosa 1767-00
# Pseudomonas aeruginosa [8] = test: Antimicrobial activity against Pseudomonas aeruginosa 1954-00
# Pseudomonas aeruginosa [9] = test: Antimicrobial activity against Pseudomonas aeruginosa 1760-00
# Pseudomonas aeruginosa [10] = test: Antimicrobial activity against Pseudomonas aeruginosa 1515-08
# Pseudomonas aeruginosa [11] = test: Antimicrobial activity against Pseudomonas aeruginosa 1615-09
# Pseudomonas aeruginosa [12] = test: Antimicrobial activity against Pseudomonas aeruginosa 1614-09
# Pseudomonas aeruginosa [13] = test: Antimicrobial activity against Pseudomonas aeruginosa 1764-00
# Pseudomonas aeruginosa [14] = test: Antimicrobial activity against Pseudomonas aeruginosa 1567-05
# Pseudomonas aeruginosa [15] = test: Antimicrobial activity against Pseudomonas aeruginosa 1523-08
# Pseudomonas aeruginosa [16] = test: Antimicrobial activity against Pseudomonas aeruginosa 1510-08
# Pseudomonas aeruginosa [17] = test: Antimicrobial activity against Pseudomonas aeruginosa PA-4993
# Pseudomonas aeruginosa [18] = test: Antimicrobial activity against Pseudomonas aeruginosa 1568-05
# Pseudomonas aeruginosa [19] = test: Antimicrobial activity against Pseudomonas aeruginosa 1562-05
# Pseudomonas aeruginosa [20] = test: Antimicrobial activity against Pseudomonas aeruginosa 1955-00
# Pseudomonas aeruginosa [21] = test: Antimicrobial activity against Pseudomonas aeruginosa 1570-05
# Pseudomonas aeruginosa [22] = test: Antimicrobial activity against Pseudomonas aeruginosa 1956-00
# Pseudomonas aeruginosa [23] = test: Antimicrobial activity against Pseudomonas aeruginosa 1765-00
# Pseudomonas aeruginosa [24] = test: Antimicrobial activity against Pseudomonas aeruginosa PA-1757
# Pseudomonas aeruginosa [25] = test: Antimicrobial activity against Pseudomonas aeruginosa 1564-05
# Pseudomonas aeruginosa [26] = test: Antimicrobial activity against Pseudomonas aeruginosa PA-4995
# Pseudomonas aeruginosa [27] = test: Antimicrobial activity against Pseudomonas aeruginosa 1753-00
# Pseudomonas aeruginosa [28] = test: Antimicrobial activity against Pseudomonas aeruginosa PA-75
# Pseudomonas aeruginosa [29] = test: Antimicrobial activity against Pseudomonas aeruginosa 1509-08
# Pseudomonas aeruginosa [30] = test: Antimicrobial activity against Pseudomonas aeruginosa 1521-08
# Pseudomonas aeruginosa [31] = test: Antimicrobial activity against Pseudomonas aeruginosa 1752-00
# Pseudomonas aeruginosa [32] = test: Antimicrobial activity against Pseudomonas aeruginosa 1952-00
# Pseudomonas aeruginosa [33] = test: Antimicrobial activity against Pseudomonas aeruginosa 1563-00
# Pseudomonas aeruginosa [34] = test: Antimicrobial activity against Pseudomonas aeruginosa 1565-05
# Pseudomonas aeruginosa [35] = test: Antimicrobial activity against Pseudomonas aeruginosa 1561-05
# Pseudomonas aeruginosa [36] = test: Antimicrobial activity against Pseudomonas aeruginosa 1512-08
# Pseudomonas aeruginosa [37] = test: Antimicrobial activity against Pseudomonas aeruginosa PA-4991
# Pseudomonas aeruginosa [38] = test: Antimicrobial activity against Pseudomonas aeruginosa 1526-08
# Pseudomonas aeruginosa [39] = test: Antimicrobial activity against Pseudomonas aeruginosa PA-4990
# Pseudomonas aeruginosa [40] = test: Antimicrobial activity against Pseudomonas aeruginosa 1611-09
# Pseudomonas aeruginosa [41] = test: Antimicrobial activity against Pseudomonas aeruginosa 1761-00
# Pseudomonas aeruginosa [42] = test: Antimicrobial activity against Pseudomonas aeruginosa PA-4999
# Pseudomonas aeruginosa [43] = test: Antimicrobial activity against Pseudomonas aeruginosa 1569-05
# Pseudomonas aeruginosa [44] = test: Antimicrobial activity against Pseudomonas aeruginosa 1527-08
# Pseudomonas aeruginosa [45] = test: Antimicrobial activity against Pseudomonas aeruginosa 1566-05
# Pseudomonas aeruginosa [46] = test: Antimicrobial activity against Pseudomonas aeruginosa 1619-08
# Pseudomonas aeruginosa [47] = test: Antimicrobial activity against Pseudomonas aeruginosa PA-4624
# Pseudomonas aeruginosa [48] = test: Antimicrobial activity against Pseudomonas aeruginosa 1513-08
# Pseudomonas aeruginosa [49] = test: Antimicrobial activity against Pseudomonas aeruginosa 1768-00
# Pseudomonas aeruginosa [50] = test: Antimicrobial activity against Pseudomonas aeruginosa 1613-09
# Pseudomonas aeruginosa [51] = test: Antimicrobial activity against Pseudomonas aeruginosa 1957-00
smiles,measurement,setting,value
C[C@H](O)Cn1c(-c2cc(=O)c(O)c[nH]2)nn(S(=O)(=O)NC(=O)N2C(=O)[C@@H](NC(=O)/C(=N\OC(C)(C)C(=O)O)c3csc(N)n3)[C@@H]2C)c1=O,MIC90,Pseudomonas aeruginosa [1],0.25 µg/mL
same,MIC90,Pseudomonas aeruginosa [2],0.25 µg/mL
same,MIC90,Pseudomonas aeruginosa [3],0.5 µg/mL
same,MIC90,Pseudomonas aeruginosa [4],1 µg/mL
same,MIC90,Pseudomonas aeruginosa [5],0.25 µg/mL
same,MIC90,Pseudomonas aeruginosa [6],0.5 µg/mL
same,MIC90,Pseudomonas aeruginosa [7],0.125 µg/mL
same,MIC90,Pseudomonas aeruginosa [8],0.03 µg/mL
same,MIC90,Pseudomonas aeruginosa [9],0.5 µg/mL
same,MIC90,Pseudomonas aeruginosa [10],0.5 µg/mL
same,MIC90,Pseudomonas aeruginosa [11],0.25 µg/mL
same,MIC90,Pseudomonas aeruginosa [12],0.25 µg/mL
same,MIC90,Pseudomonas aeruginosa [13],0.06 µg/mL
same,MIC90,Pseudomonas aeruginosa [14],0.125 µg/mL
same,MIC90,Pseudomonas aeruginosa [15],0.25 µg/mL
same,MIC90,Pseudomonas aeruginosa [16],0.5 µg/mL
same,MIC90,Pseudomonas aeruginosa [17],0.25 µg/mL
same,MIC90,Pseudomonas aeruginosa [18],0.25 µg/mL
same,MIC90,Pseudomonas aeruginosa [19],0.06 µg/mL
same,MIC90,Pseudomonas aeruginosa [20],0.125 µg/mL
same,MIC90,Pseudomonas aeruginosa [21],0.125 µg/mL
same,MIC90,Pseudomonas aeruginosa [22],0.06 µg/mL
same,MIC90,Pseudomonas aeruginosa [23],0.5 µg/mL
same,MIC90,Pseudomonas aeruginosa [24],4 µg/mL
same,MIC90,Pseudomonas aeruginosa [25],0.125 µg/mL
same,MIC90,Pseudomonas aeruginosa [26],0.06 µg/mL
same,MIC90,Pseudomonas aeruginosa [27],0.5 µg/mL
same,MIC90,Pseudomonas aeruginosa [28],0.25 µg/mL
same,MIC90,Pseudomonas aeruginosa [29],0.5 µg/mL
same,MIC90,Pseudomonas aeruginosa [30],0.5 µg/mL
same,MIC90,Pseudomonas aeruginosa [31],0.25 µg/mL
same,MIC90,Pseudomonas aeruginosa [32],0.25 µg/mL
same,MIC90,Pseudomonas aeruginosa [33],0.125 µg/mL
same,MIC90,Pseudomonas aeruginosa [34],0.25 µg/mL
same,MIC90,Pseudomonas aeruginosa [35],0.5 µg/mL
same,MIC90,Pseudomonas aeruginosa [36],0.25 µg/mL
same,MIC90,Pseudomonas aeruginosa [37],0.25 µg/mL
same,MIC90,Pseudomonas aeruginosa [38],0.125 µg/mL
same,MIC90,Pseudomonas aeruginosa [39],0.125 µg/mL
same,MIC90,Pseudomonas aeruginosa [40],0.06 µg/mL
same,MIC90,Pseudomonas aeruginosa [41],0.5 µg/mL
same,MIC90,Pseudomonas aeruginosa [42],0.25 µg/mL
same,MIC90,Pseudomonas aeruginosa [43],0.25 µg/mL
same,MIC90,Pseudomonas aeruginosa [44],0.25 µg/mL
same,MIC90,Pseudomonas aeruginosa [45],0.125 µg/mL
same,MIC90,Pseudomonas aeruginosa [46],0.03 µg/mL
same,MIC90,Pseudomonas aeruginosa [47],0.5 µg/mL
same,MIC90,Pseudomonas aeruginosa [48],0.5 µg/mL
same,MIC90,Pseudomonas aeruginosa [49],0.06 µg/mL
same,MIC90,Pseudomonas aeruginosa [50],0.25 µg/mL
same,MIC90,Pseudomonas aeruginosa [51],0.06 µg/mL
CC(C)(O/N=C(\C(=O)N[C@H]1CN(C(=O)NS(=O)(=O)n2nc(-c3cc(=O)c(O)c[nH]3)n(C[C@@H](O)CO)c2=O)C1=O)c1csc(N)n1)C(=O)O,MIC90,Pseudomonas aeruginosa [1],0.25 µg/mL
same,MIC90,Pseudomonas aeruginosa [2],0.25 µg/mL
same,MIC90,Pseudomonas aeruginosa [3],0.5 µg/mL
same,MIC90,Pseudomonas aeruginosa [4],16 µg/mL
same,MIC90,Pseudomonas aeruginosa [5],0.5 µg/mL
same,MIC90,Pseudomonas aeruginosa [6],0.5 µg/mL
same,MIC90,Pseudomonas aeruginosa [7],0.125 µg/mL
same,MIC90,Pseudomonas aeruginosa [8],0.06 µg/mL
same,MIC90,Pseudomonas aeruginosa [9],0.25 µg/mL
same,MIC90,Pseudomonas aeruginosa [10],0.25 µg/mL
same,MIC90,Pseudomonas aeruginosa [11],0.25 µg/mL
same,MIC90,Pseudomonas aeruginosa [12],0.25 µg/mL
same,MIC90,Pseudomonas aeruginosa [13],0.125 µg/mL
same,MIC90,Pseudomonas aeruginosa [14],0.125 µg/mL
same,MIC90,Pseudomonas aeruginosa [15],0.25 µg/mL
same,MIC90,Pseudomonas aeruginosa [16],8 µg/mL
same,MIC90,Pseudomonas aeruginosa [17],0.125 µg/mL
same,MIC90,Pseudomonas aeruginosa [18],0.25 µg/mL
same,MIC90,Pseudomonas aeruginosa [19],0.125 µg/mL
same,MIC90,Pseudomonas aeruginosa [20],0.125 µg/mL
same,MIC90,Pseudomonas aeruginosa [21],0.125 µg/mL
same,MIC90,Pseudomonas aeruginosa [22],0.06 µg/mL
same,MIC90,Pseudomonas aeruginosa [23],0.5 µg/mL
same,MIC90,Pseudomonas aeruginosa [24],8 µg/mL
same,MIC90,Pseudomonas aeruginosa [25],0.125 µg/mL
same,MIC90,Pseudomonas aeruginosa [26],0.125 µg/mL
same,MIC90,Pseudomonas aeruginosa [27],0.25 µg/mL
same,MIC90,Pseudomonas aeruginosa [28],0.25 µg/mL
same,MIC90,Pseudomonas aeruginosa [29],2 µg/mL
same,MIC90,Pseudomonas aeruginosa [30],0.5 µg/mL
same,MIC90,Pseudomonas aeruginosa [31],0.5 µg/mL
same,MIC90,Pseudomonas aeruginosa [32],0.125 µg/mL
same,MIC90,Pseudomonas aeruginosa [33],0.125 µg/mL
same,MIC90,Pseudomonas aeruginosa [34],0.125 µg/mL
same,MIC90,Pseudomonas aeruginosa [35],1 µg/mL
same,MIC90,Pseudomonas aeruginosa [36],0.25 µg/mL
same,MIC90,Pseudomonas aeruginosa [37],0.25 µg/mL
same,MIC90,Pseudomonas aeruginosa [38],0.5 µg/mL
same,MIC90,Pseudomonas aeruginosa [39],0.125 µg/mL
same,MIC90,Pseudomonas aeruginosa [40],0.125 µg/mL
same,MIC90,Pseudomonas aeruginosa [41],1 µg/mL
same,MIC90,Pseudomonas aeruginosa [42],0.25 µg/mL
same,MIC90,Pseudomonas aeruginosa [43],0.25 µg/mL
same,MIC90,Pseudomonas aeruginosa [44],0.25 µg/mL
same,MIC90,Pseudomonas aeruginosa [45],0.125 µg/mL
same,MIC90,Pseudomonas aeruginosa [46],0.06 µg/mL
same,MIC90,Pseudomonas aeruginosa [47],0.25 µg/mL
same,MIC90,Pseudomonas aeruginosa [48],0.5 µg/mL
same,MIC90,Pseudomonas aeruginosa [49],0.06 µg/mL
same,MIC90,Pseudomonas aeruginosa [50],0.5 µg/mL
same,MIC90,Pseudomonas aeruginosa [51],0.06 µg/mL
C[C@H]1[C@H](NC(=O)/C(=N\OC(C)(C)C(=O)O)c2csc(N)n2)C(=O)N1C(=O)NS(=O)(=O)n1nc(-c2cc(=O)c(O)c[nH]2)n(CC(N)=O)c1=O,MIC90,Pseudomonas aeruginosa [1],0.25 µg/mL
same,MIC90,Pseudomonas aeruginosa [2],0.25 µg/mL
same,MIC90,Pseudomonas aeruginosa [3],0.25 µg/mL
same,MIC90,Pseudomonas aeruginosa [4],16 µg/mL
same,MIC90,Pseudomonas aeruginosa [5],0.5 µg/mL
same,MIC90,Pseudomonas aeruginosa [6],0.5 µg/mL
same,MIC90,Pseudomonas aeruginosa [7],0.25 µg/mL
same,MIC90,Pseudomonas aeruginosa [8],0.06 µg/mL
same,MIC90,Pseudomonas aeruginosa [9],1 µg/mL
same,MIC90,Pseudomonas aeruginosa [10],0.25 µg/mL
same,MIC90,Pseudomonas aeruginosa [11],0.25 µg/mL
same,MIC90,Pseudomonas aeruginosa [12],0.25 µg/mL
same,MIC90,Pseudomonas aeruginosa [13],0.25 µg/mL
same,MIC90,Pseudomonas aeruginosa [14],0.125 µg/mL
same,MIC90,Pseudomonas aeruginosa [15],0.25 µg/mL
same,MIC90,Pseudomonas aeruginosa [16],2 µg/mL
same,MIC90,Pseudomonas aeruginosa [17],0.06 µg/mL
same,MIC90,Pseudomonas aeruginosa [18],0.25 µg/mL
same,MIC90,Pseudomonas aeruginosa [19],0.125 µg/mL
same,MIC90,Pseudomonas aeruginosa [20],0.125 µg/mL
same,MIC90,Pseudomonas aeruginosa [21],0.25 µg/mL
same,MIC90,Pseudomonas aeruginosa [22],0.06 µg/mL
same,MIC90,Pseudomonas aeruginosa [23],1 µg/mL
same,MIC90,Pseudomonas aeruginosa [24],4 µg/mL
same,MIC90,Pseudomonas aeruginosa [25],0.125 µg/mL
same,MIC90,Pseudomonas aeruginosa [26],0.06 µg/mL
same,MIC90,Pseudomonas aeruginosa [27],0.25 µg/mL
same,MIC90,Pseudomonas aeruginosa [28],0.25 µg/mL
same,MIC90,Pseudomonas aeruginosa [29],1 µg/mL
same,MIC90,Pseudomonas aeruginosa [30],0.5 µg/mL
same,MIC90,Pseudomonas aeruginosa [31],0.25 µg/mL
same,MIC90,Pseudomonas aeruginosa [32],0.25 µg/mL
same,MIC90,Pseudomonas aeruginosa [33],0.125 µg/mL
same,MIC90,Pseudomonas aeruginosa [34],0.125 µg/mL
same,MIC90,Pseudomonas aeruginosa [35],0.5 µg/mL
same,MIC90,Pseudomonas aeruginosa [36],0.25 µg/mL
same,MIC90,Pseudomonas aeruginosa [37],0.25 µg/mL
same,MIC90,Pseudomonas aeruginosa [38],0.5 µg/mL
same,MIC90,Pseudomonas aeruginosa [39],0.25 µg/mL
same,MIC90,Pseudomonas aeruginosa [40],0.06 µg/mL
same,MIC90,Pseudomonas aeruginosa [41],0.5 µg/mL
same,MIC90,Pseudomonas aeruginosa [42],0.25 µg/mL
same,MIC90,Pseudomonas aeruginosa [43],0.25 µg/mL
same,MIC90,Pseudomonas aeruginosa [44],0.25 µg/mL
same,MIC90,Pseudomonas aeruginosa [45],0.25 µg/mL
same,MIC90,Pseudomonas aeruginosa [46],0.06 µg/mL
same,MIC90,Pseudomonas aeruginosa [47],0.25 µg/mL
same,MIC90,Pseudomonas aeruginosa [48],0.5 µg/mL
same,MIC90,Pseudomonas aeruginosa [49],0.06 µg/mL
same,MIC90,Pseudomonas aeruginosa [50],0.5 µg/mL
same,MIC90,Pseudomonas aeruginosa [51],0.125 µg/mL
